Where no end group is shown, it is not given here. The star is where a group is joined. Biotin = O=C1N[C@H]2[C@H](CS[C@H]2CCCCC(=O)*)N1
Columns and labels:
[1] = Phage ELISA, bovine polished enamel-binding assay; settings: over 10^10 pfu phage, A450
Protocol: A total of 11 selected phage candidates (Example 3) was used in a phage ELISA experiment. Purified phage lysates were used for binding to the enamel blocks using an anti-M13 phage antibody conjugated to horseradish-peroxidase, followed by the addition of chromogenic agent TMB. The plates were read at A450 nm.
For each phage candidate to be tested, the polished and unpolished enamel blocks were incubated for 1 h at room temperature with 200 μL of blocking buffer, consisting of 2% non-fat dry milk (Schleicher & Schuell, Inc.) in TBS. […] The tube was rinsed 6 times with wash buffer consisting of TBST-0.05%. The wells were filled with 200 μL of TBST-0.5% containing 1 mg/mL BSA and then 10 μL (over 10^10 pfu) of purified phage stock was added. The samples were incubated at room temperature for 60 min with slow shaking. The non-binding phage was removed by washing 6 times with TBST-0.5%. […] The conjugate solution was removed and was washed 6 times with TBST-0.5%. […] BoEn P means bovine polished enamel and BoEn means bovine enamel.

[2] = tested on: pellicle coated enamel substrates; settings: 20 μM biotinylated peptide, streptavidin-HRP, normalized to DenP03, three replicates
Protocol: A total of 20 synthetic peptides were manufactured using sequences obtained from Table 6. Peptides were obtained from SynBioSci Corp. (Livermore, Calif.) and included an additional sequence (SSRP; SEQ ID NO: 118) at the N-terminus and biotin labeled lysine at the C-terminus.
Enamel substrates were cut into approximately 7 mm squares and mounted on wax mounting for incubation in the mouth for 30 min to form a pellicle coated surface. The pellicle coated enamel substrates were removed from the wax backing and placed in well plates with the pellicle surface exposed as in Example 5. Each pellicle coated substrate was incubated for 1 h at room temperature (˜22° C.) with 1 mL of blocking buffer, consisting of 1 mg/mL BSA in PBST (Pierce BUPH™ #28372 with 0.1% TWEEN® 20). The blocking buffer was removed by aspirating the liquid out of each well. The tube was rinsed 2 times with wash buffer consisting of PBST. The wells were filled with 500 μL of 20 μM peptide solution which was prepared by diluting in blocking buffer. The samples were incubated for 30 min with slow shaking at 37° C. The non-binding peptide was removed by washing 6 times with PBST. Then, 500 μL of horseradish peroxidase/streptavidin conjugate (Pierce #22127), diluted 1:2000 in PBST, was added and incubated for 1 h at room temperature (˜22° C.). The conjugate solution was removed and was washed 4 times with PBST.
Each enamel substrate was removed from the well and washed again in a 15-mL test tube with 10 mL of PBST. Each enamel substrate was then mounted in a clean well plate with only the enamel surface exposed. A 1:1 solution of TMB substrate and H2O2 (200 μL) was added to each well and the color was allowed to develop for between 10 to 20 min, typically for 15 min, at room temperature (˜22° C.). Then, 100 μL of solution from each well was transferred to a 96 well reading plate containing stop solution (100 μL of 2 M H2SO4) in each well. The A450 was measured using a microplate spectrophotometer (Molecular Devices, Sunnyvale, Calif.). […] Each sequence was tested with three replicate enamel coated pellicle substrates.

[3] = tested on: Pellicle Surface; settings: read-out: MB50; biotinylated peptide, 30 min in vivo pellicle on enamel, from Scatchard plots
Protocol: The pellicle coated enamel substrates were removed from the wax backing and placed in well plates with the pellicle surface exposed as in Example 5. […] The blocking buffer was removed by aspirating the liquid out of each well. […] The samples were incubated for 30 min with slow shaking at 37° C. The non-binding peptide was removed by washing 6 times with PBST. […] The conjugate solution was removed and was washed 4 times with PBST.
Each enamel substrate was removed from the well and washed again in a 15-mL test tube with 10 mL of PBST. Each enamel substrate was then mounted in a clean well plate with only the enamel surface exposed.

[4] = Peptide-mediated adhesion of streptavidin-coated gold particles on enamel, SEM; assay type: binding, bovine; settings: 20 μM peptide, then 50 nm streptavidin gold nanoparticles; SEM at 10000X
Protocol: Bovine enamel incisors were obtained from SE Dental (Baton Rouge, La.). Teeth are sectioned and cut into enamel slabs approx. 5 mm on each side using a DREMEL® saw with a diamond blade. The enamel blocks are cleaned and place each in a plastic microcentrifuge tube.
Each enamel block was incubated for 45 min in phosphate buffered saline with 0.1% TWEEN® 20 (PBST) and 1 mg/mL bovine serum albumin (BSA) at room temperature (22° C.). All blocks were rinsed with PBST twice while vortexing in the microcentrifuge tube. The peptides were first diluted to 10 mM in water and then a working concentration of 20 μM was prepared in PBST with 1 mg/mL BSA. Each sample was exposed to the peptide solution or a no peptide buffer control for 30 min at room temperature. The samples were slowly rotated during incubation. The enamel blocks were removed from the peptide solution and washed four times with PBST with vortexing.
50 nm gold nanoparticles functionalized with streptavidin were obtained from Nanocs Inc (New York, N.Y.) and diluted to 0.006% wt in PBST with 1 mg/mL BSA. All enamel samples were then exposed to the gold nanoparticle solution for 1 hr at room temperature with slow rotation. […]
Each enamel sample was examined with Electron Microscopy. […] Particles were counted per micrograph and the density of particle coverage was compared (Table 14).

[5] = tested on: pellicle-coated enamel substrates; experiment: Tooth whitening with sequentially applied peptide and silica-coated TiO2, colour measurement; design: species or system bovine; settings: 20 μM peptide 30 min, then 1% silica-coated TiO2 30 min; three replicate teeth
Protocol: Silica-coated rutile titanium dioxide (Luce II WW) was obtained from US Cosmetics Corp. (Dayville, Conn.). A 12 wt % solution of the pigment was prepared with Millipore water. The solution was dispersed by horn sonication using a Branson Sonifier 150 at 10 W. The solution was sonicated in an ice bath for 6 min total, with 2 min sonication intervals. A working solution of 1 wt % in 10 mM sodium phosphate buffer at pH7.2 was made for application to peptide coated enamel. A 0.01% solution of this dispersion diluted in the same buffer was measured on a Malvern Zetasizer Nano dynamic light scattering instrument.
Bovine enamel incisors were obtained from SE Dental (Baton Rouge, La.). Teeth were sectioned and cut into enamel slabs approx. 7 mm on each side using a DREMEL® saw with a diamond blade. The enamel slabs were cleaned and lightly polished to remove surface debris. The enamel was pretreated with a mixture of coffee and tea in order to stain to a color similar to human stained teeth. Each enamel block was then mounted on wax mounting and sterilized with ethylene oxide. […] The mounted enamel blocks were brushed with a toothbrush and a 1:2 dilution of COLGATE® MAXFRESH® toothpaste (Colgate-Palmolive Co., New York, N.Y.) and then reinserted into the mouth for 1 minute. […] Each pellicle coated enamel slab was measured for color using a Konica-Minolta 2600d integrating sphere spectrophotometer.
Peptides listed in Table 15 were dissolved into pH 7.2 PBS buffer at a concentration of 20 μM. Three replicate teeth were used for each experimental condition. Each tooth was incubated with peptide solution for 30 min or buffer alone as a control. The enamel blocks were removed from the peptide solution and rinsed with PBS buffer. The enamel blocks were then incubated in the 1% solution of silica-coated TiO2 for 30 min. The enamel blocks were removed, rinsed with 10 mM phosphate buffer and blotted dry. Each substrate was measured for color (L, a*, b*, C*, h) values. The total color difference, Delta E*ab and the Metric Hue Difference, Delta H*ab, for the whitening process were calculated using equations (1) and (2) below: Delta E*ab=((L*1−L*2)^2+(a*1−a*2)^2+(b*1−b*2)^2)^1/2 (1) Delta H*ab=(2(C*1C*2−a*1a*2−b*1b*2))^1/2 (2) where L*=the lightness variable, a* and b* are the chromaticity coordinates and C* is the chroma of CIELAB colorspace as defined by the International Commission of Illumination (CIE) and described in ASTM D2244-09b and subscript 1 denotes the initial color value and subscript 2 denotes the final color value.

[6] = Peptide-mediated deposition of Co-NTA beads on bovine enamel, SEM; assay type: binding; settings: 20 μM peptide, then Co-NTA TALON beads; SEM at 5000X
Text: Bovine enamel incisors were obtained from SE Dental (Baton Rouge, La.). Teeth were sectioned and cut into enamel slabs approx. 5 mm on each side using a DREMEL® rotary (Robert Bosch LLC, Farmington Hills, Mich.) saw with a diamond blade. The enamel slabs were cleaned and embedded in a well plate contained molding material so as to only expose the enamel surface in the well.
Polystyrene beads with cobalt-NTA coating (DYNABEADS® TALON®) were obtained from Invitrogen (item#101.02D) as a slurry of 40 mg/mL. The slurry (50 μL; 2 mg beads) was resuspended and washed with 700 μL of binding buffer (50 mM sodium phosphate, pH 8.0, 300 mM NaCI, 0.01% TWEEN® 20) in preparation for His6 binding.
Peptides were dissolved in phosphate buffered saline (Pierce, pH 7.2) at a concentration of 20 μM. Peptide solution (500 μL) was placed in each well containing an enamel slab. Enamel slabs exposed to only PBS in this step were used as a control. Samples were incubated with peptide solution with gentle agitation for 30 min. The peptide solution and PBS were removed from the well plate and each well was rinsed 3 times with repeated additions of PBS. TALON® beads (50 μL) were added to each well and incubated with gentle agitation for 30 min. The TALON® solution was removed and the samples were washed three times with the same binding buffer.
Each enamel sample was removed from the well plate and rinsed again with buffer. […] The enamel slabs were further examined by Electron Microscopy (Hitachi TM-1000 Tabletop SEM Microscope) at 1000×, 2500× and 5000× magnification. […] Little to no beads were found on the no peptide control. […]

EPPTRTRVNNHTVTVQAQQH (Synthetic oral-surface binding peptide) [BoEn P2]
O.D.450 [1]: 0.641

GYCLRGDEPAVCSG (Synthetic oral-surface binding peptide) [BoEn P3]
O.D.450 [1]: 0.665

NFCETQLDLSVCTV (Synthetic oral-surface binding peptide) [BoEn P5]
O.D.450 [1]: 0.797

NTCQPTKNATPCSA (Synthetic oral-surface binding peptide) [BoEn P6]
O.D.450 [1]: 0.83

SSRPHKNENIMQYNVNDRWHITPAK(Biotin) [DenP32-A]
O.D.450 (normalized) [2]: 1.135
EC50 [3]: 25 µM

SSRPTTYHYKNIYQESYQQRNPAVK(Biotin) [DenP3-A]
O.D.450 (normalized) [2]: 1.000
EC50 [3]: 28 µM

THNMSHFPPSGHPKRTAT (Synthetic oral-surface binding peptide) [BoEn P8]
O.D.450 [1]: 2.02

TTYHYKNIYQESYQQRNPAVHHHHHH [DenP03-D]
Particles per μm^2 at 10000X [4]: 0.23 Particles per μm^2

TTYHYKNIYQESYQQRNPAVK(Biotin) [DenP03-C]
Particles per μm^2 at 10000X [4]: 1.75 Particles per μm^2

B1: PSSSRPTTYHYKNIYQESYQQRNPAVGPEEAAKKEEAAKKPASSRPTTYHYKNIYQESYQQRNPAVGPHHHHHH (peptide)
chain: PSSSRPTTYHYKNIYQESYQQRNPAVGPEEAAKKEEAAKKPASSRPTTYHYKNIYQESYQQRNPAVGPHHHHHH
Delta E*ab Avg [5]: 6.78
Delta H*ab Avg [5]: 1.60

B2: PGSGGGGSPYSETPNDQKPNPHYKVSGTKGGGYSETPNDQKPNPHYKVSGTKGGGYSETPNDQKPNPHYKVSGTKGPGGHHHHHH (peptide)
chain: PGSGGGGSPYSETPNDQKPNPHYKVSGTKGGGYSETPNDQKPNPHYKVSGTKGGGYSETPNDQKPNPHYKVSGTKGPGGHHHHHH
modifications: Synthetic peptide composition
Particles per um^2 at 5000X [6]: 0.44 Particles per um^2

B3: PSSRPTTYHYKNIYQESYQQRNPAVGPEEAAKKEEAAKKPASSRPTTYHYKNIYQESYQQRNPAVGSSGPGSSKQPNKQPNKQPNKQPNKQPNKQPNKQPNKQPNKQPNGPHHHHHH (peptide)
chain: PSSRPTTYHYKNIYQESYQQRNPAVGPEEAAKKEEAAKKPASSRPTTYHYKNIYQESYQQRNPAVGSSGPGSSKQPNKQPNKQPNKQPNKQPNKQPNKQPNKQPNKQPNGPHHHHHH
Delta E*ab Avg [5]: 10.70
Delta H*ab Avg [5]: 2.93

From patent US8354381B2, “Peptide compositions for oral care systems” (E I du Pont de Nemours and Company, priority 2009, dated 2013)
